Assay results reported in EP0183129A1, “Quinolonecarboxylic acid derivatives” (KYORIN PHARMACEUTICAL CO., LTD., priority 1984, dated 1986).
Values after ≈ are worked out from the molar mass of the structure shown. Counter-ions that a name gives are not always drawn. Like-named read-outs stand apart in the source and are kept apart here.

How the values were obtained:
S. faecalis 401 = experiment: In vitro antibacterial activity, MIC (clinical isolates); format: cell-based; conditions: Enterococcus faecalis; S. faecalis 401; 10^6 cells/ml; clinical isolate; read-out: MIC
S. agalactiae 4394 = experiment: as above; format: cell-based; conditions: Streptococcus agalactiae; S. agalactiae 4394; 10^6 cells/ml; clinical isolate; read-out: MIC
[1] = test system: Enterobacter cloacae IID 977; experiment: In vitro antibacterial activity, MIC (standard strain); format: cell-based; conditions: Enterobacter cloacae, IID977, Enterobacter cloacae IID 977; 10^6 cells/ml; standard strain; read-out: MIC
S. faecalis 214 = experiment: In vitro antibacterial activity, MIC (clinical isolates); format: cell-based; conditions: Enterococcus faecalis; S. faecalis 214; 10^6 cells/ml; clinical isolate; read-out: MIC
S. pyogenes IID 692 = experiment: In vitro antibacterial activity, MIC (standard strain); format: cell-based; conditions: Streptococcus pyogenes, IID692; S. pyogenes IID 692; 10^6 cells/ml; standard strain; read-out: MIC
P. aeruginosa IFO 12689 = experiment: as above; format: cell-based, Pseudomonas aeruginosa; conditions: Pseudomonas aeruginosa, IFO12689; P. aeruginosa IFO 12689; 10^6 cells/ml; standard strain; read-out: MIC
[2] = test system: S. aureus IID 670 (Terajima); experiment: as above; format: cell-based, Staphylococcus aureus; conditions: Staphylococcus aureus, IID670, S. aureus IID 670 (Terajima); 10^6 cells/ml; standard strain; read-out: MIC
[3] = test system: Morganella morganii IID 602; experiment: as above; format: cell-based; conditions: IID602; Morganella morganii IID 602; 10^6 cells/ml; standard strain; read-out: MIC
S. pneumoniae 28 = experiment: In vitro antibacterial activity, MIC (clinical isolates); format: cell-based; conditions: Streptococcus pneumoniae, 10^6 cells/ml, clinical isolate
[4] = test system: Clostridium perfringens KYA 13123; experiment: microbe, parasite or virus in culture; format: cell-based; conditions: KYA13123
[5] = test system: Klebsiella pneumoniae KY(GN)6445; experiment: In vitro antibacterial activity, MIC (standard strain); format: cell-based; conditions: Klebsiella pneumoniae KY(GN)6445; 10^6 cells/ml; standard strain; read-out: MIC
S. pyogenes 4372 = experiment: In vitro antibacterial activity, MIC (clinical isolates); format: cell-based; conditions: Streptococcus pyogenes; S. pyogenes 4372; 10^6 cells/ml; clinical isolate; read-out: MIC
M. pneumoniae Mac. = experiment: In vitro antibacterial activity against Mycoplasma, MIC; format: cell-based; conditions: Mycoplasmoides pneumoniae, 120 h; M. pneumoniae Mac.; no visible growth after incubation for 5 days; read-out: MIC
From the text: Experiment-3 In vitro antibacterial activity against Mycoplasma

P. mirabilis IID 994 = experiment: In vitro antibacterial activity, MIC (standard strain); format: cell-based; conditions: Proteus mirabilis, IID994; P. mirabilis IID 994; 10^6 cells/ml; standard strain; read-out: MIC
[6] = test system: Serratia marcescens IID 618; experiment: as above; format: cell-based; conditions: Serratia marcescens, IID618, Serratia marcescens IID 618; 10^6 cells/ml; standard strain; read-out: MIC
B. fragilis 25285 = experiment: as above; format: cell-based, Bacteroides fragilis; conditions: Bacteroides fragilis, 25285, B. fragilis 25285; 10^6 cells/ml; standard strain; read-out: MIC
[7] = test system: Proteus vulgaris IFO 3167; experiment: as above; format: cell-based; conditions: IFO3167; Proteus vulgaris IFO 3167; 10^6 cells/ml; standard strain; read-out: MIC
S. aureus Smith = experiment: In vivo antibacterial activity against systemic infection in mice; parameters: species or system mice (ICR-S); conditions: Staphylococcus aureus, po, mice (ICR-S), an hour after intraperitoneal infection
Procedure: (§1) Experiment-2 In vivo antibacterial activity against systemic infection in mice (ICR-S)
(§2) The infections were produced by intraperitoneal injection of a suspension of the bacterial culture corresponding to the germ studied. The products were administered orally at an hour after the infection.

S. pneumoniae S-4288 = experiment: as above; parameters: species or system mice (ICR-S); conditions: Streptococcus pneumoniae, S4288; mice (ICR-S); oral, an hour after intraperitoneal infection; challenge dose 7.5 x 10^4 ~ 4.8 x 10^6 cfu/mouse; read-out: ED50 S. pneumoniae S-4288
Procedure: as §1, §2

[8] = test system: Staphylococcus aureus 209 P; experiment: In vitro antibacterial activity, MIC (standard strain); format: cell-based; conditions: Staphylococcus aureus 209 P; 10^6 cells/ml; standard strain; read-out: MIC
S. agalactiae 4368 = experiment: In vitro antibacterial activity, MIC (clinical isolates); format: cell-based; conditions: Streptococcus agalactiae; S. agalactiae 4368; 10^6 cells/ml; clinical isolate; read-out: MIC
[9] = test system: Streptococcus pyogenes S-8; experiment: In vitro antibacterial activity, MIC (standard strain); format: cell-based; conditions: S8; Streptococcus pyogenes S-8; 10^6 cells/ml; standard strain; read-out: MIC
S. pneumoniae IID 552 = experiment: as above; format: cell-based; conditions: Streptococcus pneumoniae, IID552; S. pneumoniae IID 552; 10^6 cells/ml; standard strain; read-out: MIC
[10] = test system: Escherichia coli NIHJ JC-2; experiment: as above; format: cell-based; conditions: Escherichia coli, NIHJJC2, Escherichia coli NIHJ JC-2; 10^6 cells/ml; standard strain; read-out: MIC
S. pneumoniae 3227 = experiment: In vitro antibacterial activity, MIC (clinical isolates); format: cell-based; conditions: Streptococcus pneumoniae; S. pneumoniae 3227; 10^6 cells/ml; clinical isolate; read-out: MIC
S. faecalis 402 = experiment: as above; format: cell-based; conditions: Enterococcus faecalis; S. faecalis 402; 10^6 cells/ml; clinical isolate; read-out: MIC
S. pneumoniae 2950 = experiment: as above; format: cell-based; conditions: Streptococcus pneumoniae; S. pneumoniae 2950; 10^6 cells/ml; clinical isolate; read-out: MIC
S. agalactiae 4468 = experiment: as above; format: cell-based; conditions: Streptococcus agalactiae; S. agalactiae 4468; 10^6 cells/ml; clinical isolate; read-out: MIC
[11] = challenge dose 6.0 x 10^5 cfu/mouse, read-out: ED50 S. aureus Smith

| Structure (SMILES) | MIC (S. faecalis 401) [µg/mL] | MIC (S. agalactiae 4394) [µg/mL] | MIC [1] [µg/mL] | MIC (S. faecalis 214) [µg/mL] | MIC (S. pyogenes IID 692) [µg/mL] | MIC (P. aeruginosa IFO 12689) [µg/mL] | MIC [2] [µg/mL] | MIC [3] [µg/mL] | MIC (S. pneumoniae 28) [µg/mL] | MIC [4] [µg/mL] | MIC [5] [µg/mL] | MIC (S. pyogenes 4372) [µg/mL] | MIC (M. pneumoniae Mac.) [µg/mL] | MIC (P. mirabilis IID 994) [µg/mL] | MIC [6] [µg/mL] | MIC (B. fragilis 25285) [µg/mL] | MIC [7] [µg/mL] | ED50 (S. aureus Smith; [11]) [mg/kg] | ED50 (S. pneumoniae S-4288) [mg/kg] | MIC [8] [µg/mL] | further results |
| --- | --- | --- | --- | --- | --- | --- | --- | --- | --- | --- | --- | --- | --- | --- | --- | --- | --- | --- | --- | --- | --- |
| CCNCC1CCN(c2c(F)cc3c(=O)c(C(=O)O)cn(C4CC4)c3c2F)C1 (stereo not drawn) [Example 2, l-Cyclopropyl-7-(3-ethylaminomethyl-l-pyrrolidinyl)-6,8-difluoro-l,4-dihydro-4-oxo-3-quinolinecarboxylic acid hydrochloride] | 0.2 | 0.2 | 0.1 | 0.2 | 0.2 | 1.56 | 0.025 | 0.1 | 0.05 | 0.39 | 0.05 | 0.1 | 0.05 | 0.05 | 0.1 | 0.78 | 0.025 | 0.9 | 4.6 | 0.025 | ED50 (S. aureus Smith; challenge dose 5.5 x 10^5 cfu/mouse, n=5, read-out: ED50 against S. aureus Smith): 0.97 mg/kg; MIC (S. agalactiae 4368): 0.1 µg/mL; MIC [9]: 0.1 µg/mL; MIC (S. pneumoniae IID 552): 0.1 µg/mL; MIC [10]: 0.025 µg/mL; MIC (S. pneumoniae 3227): 0.1 µg/mL; MIC (S. faecalis 402): 0.2 µg/mL; MIC (S. pneumoniae 2950): 0.1 µg/mL; MIC (S. agalactiae 4468): 0.1 µg/mL |
| CNCC1CCN(c2c(F)cc3c(=O)c(C(=O)O)cn(C4CC4)c3c2F)C1 (stereo not drawn) [Example 8, 1-Cyclopropyl-6,8-difluoro-1,4-dihydro-7-(3-methylaminomethyl-l-pyrrolidinyl)-4-oxo-3-quinolinecarboxylic acid hydrochloride] | 0.1 | 0.1 | 0.1 | 0.05 | 0.05 | 1.56 | 0.025 | 0.2 | 0.05 | 0.39 | 0.025 | 0.05 | 0.05 | 0.05 | 0.2 | 0.39 | 0.025 | 1.1 | 16.1 | 0.025 | MIC (S. agalactiae 4368): 0.1 µg/mL; MIC [9]: 0.05 µg/mL; MIC (S. pneumoniae IID 552): 0.05 µg/mL; MIC [10]: 0.025 µg/mL; MIC (S. faecalis 402): 0.2 µg/mL; MIC (S. pneumoniae 2950): 0.1 µg/mL; MIC (S. agalactiae 4468): 0.1 µg/mL |
| CNCC1CCN(c2c(F)cc3c(=O)c(C(=O)O)cn(C4CC4)c3c2Cl)C1 (stereo not drawn) [Example 12, 8-Chloro-l-cyclopropyl-6-fluoro-1,4-dihydro-7-(3-methylaminomethyl-1-pyrrolidinyl)-4-oxo-3-quinolinecarboxylic acid hydrochloride] | 0.1 | 0.1 | 0.05 | 0.1 | 0.05 | 0.78 | 0.025 | 0.1 | 0.05 | 0.1 | 0.05 | 0.05 | 0.05 | 0.025 | 0.1 | 0.1 | 0.025 | 0.5 | 6.5 | 0.0125 | MIC (S. agalactiae 4368): 0.05 µg/mL; MIC [9]: 0.05 µg/mL; MIC (S. pneumoniae IID 552): 0.05 µg/mL; MIC [10]: 0.025 µg/mL; MIC (S. pneumoniae 3227): 0.05 µg/mL; MIC (S. faecalis 402): 0.1 µg/mL; MIC (S. agalactiae 4468): 0.05 µg/mL |
| CCNCC1CCN(c2c(F)cc3c(=O)c(C(=O)O)cn(C4CC4)c3c2Cl)C1 (stereo not drawn) [Example 13, 8-Chloro-l-cyclorpropyl-6-fluoro-1,4-dihydro-7-(3-ethylaminomethyl-l-pyrrolidinyl)-4-oxo-3-quinolinecarboxylic acid] | 0.1 (≈ 0.245 µM) | 0.1 (≈ 0.245 µM) | 0.1 (≈ 0.245 µM) | 0.1 (≈ 0.245 µM) | 0.05 (≈ 0.123 µM) | 1.56 (≈ 3.82 µM) | 0.025 (≈ 0.0613 µM) | 0.1 (≈ 0.245 µM) | 0.05 (≈ 0.123 µM) | 0.05 (≈ 0.123 µM) | 0.05 (≈ 0.123 µM) | 0.05 (≈ 0.123 µM) | 0.05 (≈ 0.123 µM) | 0.05 (≈ 0.123 µM) | 0.1 (≈ 0.245 µM) | 0.05 (≈ 0.123 µM) | 0.025 (≈ 0.0613 µM) | 0.6 | 2 | 0.0125 (≈ 0.0306 µM) | MIC (S. agalactiae 4368): 0.025 µg/mL (≈ 0.0613 µM); MIC [9]: 0.05 µg/mL (≈ 0.123 µM); MIC (S. pneumoniae IID 552): 0.05 µg/mL (≈ 0.123 µM); MIC [10]: 0.0125 µg/mL (≈ 0.0306 µM); MIC (S. pneumoniae 3227): 0.05 µg/mL (≈ 0.123 µM); MIC (S. faecalis 402): 0.1 µg/mL (≈ 0.245 µM); MIC (S. agalactiae 4468): 0.05 µg/mL (≈ 0.123 µM) |
